Laboratory results reported in patent US6894037B2, “2-methylene-19-nor-20(S)-25-methyl-1α-hydroxycalciferol and its uses” (Wisconsin Alumni Research Foundation, priority 2003, dated 2005).
Entries after “also recorded” stand apart in the source; their conditions may differ.

How the values were obtained:
[1] = previous work; cited from earlier work
[2] = tested on: CD-1 mice; assay: Bone calcium mobilization: serum calcium of mice fed 0.02% calcium diet after single oral dose; type: in vivo; details: for Bone Calcium Mobilization (serum calcium): single oral gavage, 0.02% calcium diet; for Bone calcium mobilization activity (bone resorption in vivo), in words: single oral dose, mice on 0.02% calcium diet
Text: Goal: Determine whether or not TMM has bone calcium mobilization activity and how it compares to 1,25(OH)2D3 and 2-methylene-19-nor-20(S)-1α, 25-(OH)2D3 (hereinafter referred to as 2MD).
5-6 week old CD-1 mice were placed in the +D mouse room and fed chow diet. They were allowed to acclimate for 5 days before being switched to a purified diet described by Yang et al (Arch. Biochem. Biphys. 303, 98, 1993) containing 0.02% calcium and 0.3% P. Two days after the diet switch, dose administration began. Experimental Design:
All animals were weighed prior to dosing. The animals were divided into groups containing 5 animals/group. All animals were administered the drug by oral gavage one time. The dose was delivered in 100 μl Neobee oil/25 g mouse. […] The rise in serum calcium comes from bone mobilization only since no calcium is available from the intestine.
Mice fed a 0.02% calcium diet can only elevate their serum calcium levels by resorbing bone because no calcium is available through intestinal absorption. […] At lower doses, there was no significant elevation of serum calcium. […] Thus, the importance of the 25-hydroxyl for bone calcium mobilization is illustrated.

[3] = tested on: HL-60 promyelocytes; assay: Differentiation of HL-60 promyelocytes into monocytes (NBT reduction); type: cell-based; details: compared with 1,25-(OH)2D3; FIG. 2
Method: FIG. 2 is a graph illustrating the percent HL-60 cell differentiation as a function of the concentration of 2-methylene-19-nor-20(S)-25-methyl-1α-hydroxycalciferol or 1α,25-dihydroxyvitamin D3; and
The differentiation of HL-60 promyelocytes into monocytes was determined as described by Ostrem et al (J. Biol. Chem. 262, 14164-14171, 1987).
Induction of differentiation of HL-60 promyelocytes to monocytes by 1α,25-(OH)2D3 and the synthesized vitamin D analog was determined by measuring the percentage of cells reducing nitro blue tetrazolium (NBT). The experiment was repeated three times. The values ED50 can be derived from dose-response curves (FIG. 2) and represent the analog concentration capable of inducing 50% maturation. Differentiation activity ratio can then be determined from the ratio of the analog average ED50 to the ED50 for 1α,25-(OH)2D3.

[4] = tested on: porcine intestinal vitamin D receptor; assay: Competitive binding to the porcine intestinal vitamin D receptor, displacement of [3H]-1,25-(OH)2-D3; details: compared with the native hormone 1,25-(OH)2D3; FIG. 1
Method: FIG. 1 is a graph illustrating the relative activity of 2-methylene-19-nor-20(S)-25-methyl-1α-hydroxycalciferol or 1α,25-dihydroxyvitamin D3 to compete for binding of [3H]-1,25-(OH)2—D3 to the vitamin D pig intestinal nuclear receptor;
Competitive binding of the analog to the porcine intestinal receptor was carried out by the method described by Dame et al (Biochemistry 25, 4523-4534, 1986).
Competitive binding of 1α, 25-(OH)2D3 and the synthesized vitamin D analog to the porcine intestinal vitamin D receptor was carried out in triplicate on two different occasions. ED50 values can be derived from dose-response curves (FIG. 1) and represent the analog concentration required for 50% displacement of the radiolabeled 1α,25-(OH)2D3 from the receptor protein. Binding ratio can then be determined from the ratio of the analog average ED50 to the ED50 for 1α,25-(OH)2D3.

[5] = tested on: CD-1 mice; assay: Intestinal calcium transport: serum calcium of alendronate-treated mice on 0.47% calcium diet; type: in vivo; details: FIG. 3
Text: FIG. 3 is a graph illustrating serum calcium versus time of mice injected with vehicle plus alendronate, with 1α,25-dihydroxyvitamin D3 plus alendronate, or with 2-methylene-19-nor-20(S)-25-methyl-1α-hydroxycalciferol (TMM) plus alendronate. Since alendronate blocks bone resorption the rise in serum calcium reflects only intestinal absorption.
In this measurement, alendronate is used to block bone resorption so the rise in serum calcium is because of increased calcium absorption from the intestine.
Goal: Determine whether or not TMM has intestinal calcium transport activity and how it compares to 1,25(OH)2D3.
5-6 week old CD-1 mice were placed in the +D mouse room and fed chow diet. They were allowed to acclimate for 7 days before being switched to a diet containing 0.47% calcium.
All animals were weighed prior to dosing and divided into groups containing 5 animals/treatment group. […] Once all time points were collected, the serum was diluted 1:50 in 0.1% Lanthum Chloride and analyzed by atomic absorption spectrometry for determination of total serum calcium levels. • Group 1: Neobee oil+Alendronate (1.75 mg/kg bw) • Group 2: 40.5 ug 1,25(OH)2D3/kg bw+Alendronate (1.75 mg/kg bw) • Group 3: 4.5 ug TMM/kg bw+Alendronate (1.75 mg/kg bw) • Group 4: 13.5 ug TMM/kg bw+Alendronate (1.75 mg/kg bw) • Group 5: 40.5 ug TMM/kg bw+Alendronate (1.75 mg/kg bw) Results: […]

Row | SMILES | Bone calcium mobilization activity (bone resorption in vivo), in words ([2]; Table 1) | Bone Calcium Mobilization (serum calcium) ([2]; 0.5 μg/kg, 0 hr (predose)) | Bone Calcium Mobilization (serum calcium) ([2]; 0.5 μg/kg, 24 hr) | Bone Calcium Mobilization (serum calcium) ([2]; 0.5 μg/kg, 48 hr) | Bone Calcium Mobilization (serum calcium) ([2]; 0.5 μg/kg, 72 hr) | Bone Calcium Mobilization (serum calcium) ([2]; 1.5 μg/kg, 0 hr (predose)) | Bone Calcium Mobilization (serum calcium) ([2]; 1.5 μg/kg, 24 hr) | Bone Calcium Mobilization (serum calcium) ([2]; 1.5 μg/kg, 48 hr) | Bone Calcium Mobilization (serum calcium) ([2]; 1.5 μg/kg, 72 hr) | Bone Calcium Mobilization (serum calcium) ([2]; 4.5 μg/kg, 0 hr (predose)) | Bone Calcium Mobilization (serum calcium) ([2]; 4.5 μg/kg, 24 hr) | Bone Calcium Mobilization (serum calcium) ([2]; 4.5 μg/kg, 48 hr) | Bone Calcium Mobilization (serum calcium) ([2]; 4.5 μg/kg, 72 hr) | Bone Calcium Mobilization (serum calcium) ([2]; 13.5 μg/kg, 0 hr (predose)) | Bone Calcium Mobilization (serum calcium) ([2]; 13.5 μg/kg, 24 hr) | Bone Calcium Mobilization (serum calcium) ([2]; 13.5 μg/kg, 48 hr) | Bone Calcium Mobilization (serum calcium) ([2]; 13.5 μg/kg, 72 hr) | other results
1 | C=C1/C(=C\C=C2/CCC[C@]3(C)[C@@H]([C@H](C)CCCC(C)(C)O)CC[C@@H]23)C[C@@H](O)C[C@@H]1O [1α,25(OH)2D3, 1α,25-dihydroxyvitamin D3] | effective at 50 μg/kg bw and 450 μg/kg bw |  |  |  |  |  |  |  |  |  |  |  |  |  |  |  |  | Intestinal calcium absorption activity relative to 2-methylene-19-nor-20(S)-1α, 25-(OH)2D3 [1]: about the same activity; Bone Calcium Mobilization (serum calcium) ([2]; 50 μg/kg, 0 hr (predose)): 8.8 ± 0.2 mg/dL; Bone Calcium Mobilization (serum calcium) ([2]; 50 μg/kg, 24 hr): 10.9 ± 0.1 mg/dL; Bone Calcium Mobilization (serum calcium) ([2]; 50 μg/kg, 48 hr): 9.6 ± 0.3 mg/dL; Bone Calcium Mobilization (serum calcium) ([2]; 50 μg/kg, 72 hr): 9.1 ± 0.2 mg/dL; Bone Calcium Mobilization (serum calcium) ([2]; 450 μg/kg, 0 hr (predose)): 8.8 ± 0.2 mg/dL; Bone Calcium Mobilization (serum calcium) ([2]; 450 μg/kg, 24 hr): 11.6 ± 0.3 mg/dL; Bone Calcium Mobilization (serum calcium) ([2]; 450 μg/kg, 48 hr): 11.4 ± 0.7 mg/dL; Bone Calcium Mobilization (serum calcium) ([2]; 450 μg/kg, 72 hr): 9.4 ± 0.4 mg/dL
2 | C=C1[C@H](O)CC(=C/C=C2\CCC[C@]3(C)[C@@H]([C@@H](C)CCCC(C)(C)O)CC[C@@H]23)C[C@H]1O [2MD, 2-methylene-19-nor-20(S)-1α, 25-(OH)2D3] |  | 8.8 ± 0.3 mg/dL | 9.4 ± 0.2 mg/dL | 9.2 ± 0.2 mg/dL | 8.9 ± 0.2 mg/dL | 8.8 ± 0.2 mg/dL | 10.1 ± 0.1 mg/dL | 10.5 ± 0.2 mg/dL | 10.1 ± 0.2 mg/dL | 8.8 ± 0.0 mg/dL | 10.9 ± 0.2 mg/dL | 12.6 ± 0.5 mg/dL | 12.0 ± 0.4 mg/dL | 8.6 ± 0.1 mg/dL | 11.5 ± 0.4 mg/dL | 10.8 ± 0.5 mg/dL | 13.4 ± 0.6 mg/dL | 
3 | C=C1[C@H](O)CC(=C/C=C2\CCC[C@]3(C)[C@@H]([C@@H](C)CCCC(C)(C)C)CC[C@@H]23)C[C@H]1O [TMM, 2-methylene-19-nor-20(S)-25-methyl-1α-hydroxycalciferol] | only at the highest dose caused bone resorption in vivo; also recorded: very little bone calcium mobilization activity | 8.7 ± 0.2 mg/dL | 8.8 ± 0.1 mg/dL | 8.7 ± 0.1 mg/dL | 8.7 ± 0.1 mg/dL | 8.7 ± 0.2 mg/dL | 8.7 ± 0.2 mg/dL | 8.6 ± 0.1 mg/dL | 8.9 ± 0.2 mg/dL | 8.5 ± 0.3 mg/dL | 9.0 ± 0.1 mg/dL | 8.9 ± 0.1 mg/dL | 8.8 ± 0.2 mg/dL | 8.8 ± 0.1 mg/dL | 9.7 ± 0.2 mg/dL | 9.9 ± 0.3 mg/dL | 9.5 ± 0.3 mg/dL | HL-60 differentiation activity relative to 1,25-(OH)2D3 [3]: essentially equal to that of 1,25-(OH)2D3; Binding to the vitamin D receptor relative to 1,25-(OH)2D3 [4]: one-tenth as well; Activity in raising serum calcium (bone calcium mobilization) relative to 1,25-(OH)2D3 ([2]; compared with 1,25-(OH)2D3, Table 1): approximately equal to 1,25-(OH)2D3; also recorded: below that of the native hormone; Activity in raising serum calcium (bone calcium mobilization) relative to 2MD ([2]; compared with 2MD, Table 1): one-tenth as active as 2MD; also recorded: fell far below; Intestinal calcium transport activity, in words [5]: more intestinal calcium transport activity than does 1,25(OH)2D3; also recorded: very strong effect on intestinal calcium absorption
